Results: ChEMBL document CHEMBL3727375, “Antiproliferative 1,2,3-thiadiazole compounds” (2007)
Activity calls are given as the source filed them. The calls are words filed in the database; no cut-off is given here.

Experiments:
Chorioallantoic membrane = assay: Antiangiogenic activity in fertilized chicken egg chorioallantoic membrane assessed as inhibition of blood vessel growth at 50 uM incubated for 2 days by dissecting microscopy relative to control; assay type: functional, tissue-based; settings: Gallus gallus
[1] = Induction of apoptosis in rat IEC-18-13 cells assessed as healthy cells at 5 uM after 24 hrs by mitosensor dye-based fluorescence microscopy (reference value: 75%); assay type: functional
Lewis lung carcinoma = assay: Antitumor activity against mouse LLC allografted in ip dosed mouse assessed as tumor growth inhibition administered daily; assay type: functional, organism-based
[2] = Induction of apoptosis in rat IEC-18-13 cells assessed as apoptotic cells at 5 uM after 24 hrs by mitosensor dye-based fluorescence microscopy (reference value: 25%); assay type: functional

Compound | growth inhibition (GI) (Chorioallantoic membrane) [%] | Activity [1] [%] | TGI (Lewis lung carcinoma) | Activity [2] [%]
NC(=O)c1nnsc1Nc1cccc2ccccc12 | 100 | – | – | –
NC(=O)c1nnsc1Nc1ccccc1 | – | 22 | Active | 78
